Measured values: patent US12685781B2, “Anti-HER3 antibody-drug conjugate” (DAIICHI SANKYO COMPANY, LIMITED, priority 2014, dated 2026)

Columns and labels:
[1] = Stability of released drug derivative; format: physicochemical; details: self-degradation to release HO—CH2—C(═O)—(NH-DX)
From the text: Meanwhile, in case of NH2—CH2—O—CH2—C(═O)—(NH-DX), it was confirmed that, as the aminal structure in the molecule is unstable, it again undergoes a self-degradation to release the following HO—CH2—C(═O)—(NH-DX). Those compounds can be also preferably used as a production intermediate of the antibody-drug conjugate of the present invention.

various cancer cells = details: cited from earlier work
human tumor = human tumor subcutaneously transplanted; cited from earlier work
topoisomerase I = target: T1, topoisomerase I (Homo sapiens, UniProt P11387); details: cited from earlier work
T1 sequence (P11387 1-765): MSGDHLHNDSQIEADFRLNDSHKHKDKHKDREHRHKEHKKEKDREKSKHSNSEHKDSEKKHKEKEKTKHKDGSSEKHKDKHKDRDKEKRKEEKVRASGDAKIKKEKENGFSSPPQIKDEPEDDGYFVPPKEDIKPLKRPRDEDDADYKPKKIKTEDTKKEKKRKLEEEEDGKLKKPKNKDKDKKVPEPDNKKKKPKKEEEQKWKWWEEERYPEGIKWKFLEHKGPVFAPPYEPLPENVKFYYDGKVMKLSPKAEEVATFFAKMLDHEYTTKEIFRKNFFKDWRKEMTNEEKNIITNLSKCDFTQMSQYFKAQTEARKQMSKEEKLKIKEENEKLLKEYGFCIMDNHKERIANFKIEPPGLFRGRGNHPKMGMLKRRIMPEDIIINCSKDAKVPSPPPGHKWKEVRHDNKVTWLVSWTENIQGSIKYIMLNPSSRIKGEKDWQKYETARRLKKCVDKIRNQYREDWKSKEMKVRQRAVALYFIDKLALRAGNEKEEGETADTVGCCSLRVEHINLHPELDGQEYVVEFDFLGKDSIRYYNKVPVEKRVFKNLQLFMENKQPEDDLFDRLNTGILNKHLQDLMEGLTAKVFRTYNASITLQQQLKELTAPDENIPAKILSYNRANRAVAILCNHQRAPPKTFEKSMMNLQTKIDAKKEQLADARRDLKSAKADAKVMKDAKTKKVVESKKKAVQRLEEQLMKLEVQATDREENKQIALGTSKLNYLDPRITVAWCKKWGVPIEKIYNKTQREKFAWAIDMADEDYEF

Compound | stability of the aminal structure in the molecule [1] | cytocidal activity in vitro compared to SN-38 and topotecan (various cancer cells) | antitumor effect (human tumor) | inhibitory activity on topoisomerase I compared to SN-38 and topotecan (topoisomerase I)
CC[C@@]1(O)C(=O)OCc2c1cc1n(c2=O)Cc2c-1nc1cc(F)c(C)c3c1c2[C@@H](NC(=O)COCN)CC3 [NH2—CH2—O—CH2—C(═O)—(NH-DX)] | unstable | – | – | –
CC[C@@]1(O)C(=O)OCc2c1cc1n(c2=O)Cc2c-1nc1cc(F)c(C)c3c1c2[C@@H](N)CC3 [exatecan, (1S,9S)-1-amino-9-ethyl-5-fluoro-2,3-dihydro-9-hydroxy-4-methyl-1H,12H-benzo[de]pyrano[3′,4′:6,7]indolizino[1,2-b]quinolin-10,13(9H,15H)-dione] | – | higher cytocidal activity | potent antitumor effect | higher inhibitory activity
